# Laboratory results published in US10829520B2, “Beta-hairpin peptidomimetics” (POLYPHOR AG, priority 2015, dated 2020).
# Where a SMILES comes first, the peptide text is derived from it. Bridges are numbered along the chain shown (N, C = ends). Roman numbers before positions name the chains, in order. [ ]: non-standard residue; d: D form. NMeDab = CN[C@@H](CCN)C(=O)O; Tle = CC(C)(C)[C@H](N)C(=O)O; dDab = NCC[C@@H](N)C(=O)O; Nle = CCCC[C@H](N)C(=O)O; Orn = NCCC[C@H](N)C(=O)O; Dab = NCC[C@H](N)C(=O)O
# Tests used:
# Type in all cases: cell-based
# [1] = tested on: Acinetobacter baumannii 872842; conditions: 872842
# [2] = tested on: Acinetobacter baumannii DSM 30008; conditions: DSM 30008
# Outline: (§1)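 CLSI broth microdilution; MH-II (cation-adjusted) + 0.002% P-80; ~10^6 CFU/mL inoculum; peptide two-fold serial dilutions; 18-20 h, 35° C; MIC = no visible growth, μg/mL.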
# [3] = tested on: Escherichia coli 926415; conditions: 926415
# [4] = tested on: Escherichia coli ATCC 25922; conditions: ATCC 25922
# Outline: as §1
# [5] = tested on: Klebsiella pneumoniae 968733; conditions: 968733
# [6] = tested on: Klebsiella pneumoniae SSI #3010; conditions: SSI #3010
# Outline: as §1
# [7] = tested on: Pseudomonas aeruginosa ATCC 27853; conditions: ATCC 27853
# Outline: as §1
# [8] = tested on: human red blood cells (hRBC); assay: Hemolysis of human red blood cells; conditions: red cells of human, 1 h, 100
# Outline: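 Each peptide was tested at a single concentration, 100 μg/mL. Erythrocytes (20% v/v) were incubated 1 h at 37° C. under shaking at 300 rpm, centrifuged, and released hemoglobin measured at OD540. Controls were PBS containing 0.001% acetic acid (0%) and Triton X-100 (100%).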
Compound,Acinetobacter baumannii 872842 MIC [1] [µg/mL],Acinetobacter baumannii DSM 30008 MIC [2] [µg/mL],Escherichia coli 926415 MIC [3] [µg/mL],Escherichia coli ATCC 25922 MIC [4] [µg/mL],Klebsiella pneumoniae 968733 MIC [5] [µg/mL],Klebsiella pneumoniae SSI #3010 MIC [6] [µg/mL],Pseudomonas aeruginosa ATCC 27853 MIC [7] [µg/mL],Hemolysis at 100 μg/mL [8] [%]
CCCC[C@@H]1NC(=O)[C@@H]2CCCN2C(=O)[C@H]2CCCN2C(=O)[C@H](CO)NC(=O)[C@H](C)NC(=O)[C@H](C(C)(C)C)NC(=O)[C@H](CCN)NC(=O)[C@H](Cc2c[nH]c3ccccc23)NC(=O)[C@H](CCN)NC(=O)[C@@H](CCN)NC(=O)[C@H](CCC(=O)N[C@H](CCN)C(=O)N[C@H]2CCNC(=O)[C@H]([C@@H](C)O)NC(=O)[C@H](CCN)NC(=O)[C@H](CCN)NC(=O)[C@H](CC(C)C)NC(=O)[C@@H](Cc3ccccc3)NC(=O)[C@H](CCN)NC2=O)NC(=O)[C@H](CCN)NC(=O)[C@H](Cc2ccc(O)cc2)NC(=O)[C@H](CO)NC1=O [Ex. 65] (I: cyclo([Nle]SY[Dab]E[dDab][Dab]W[Dab][Tle]AS[dP]P) / II: [dDab][Dab][Dab][dF]L[Dab][Dab]T; amide I:5-II:N; lactam II:2-II:C),4,2,1,1,2,1,1,<1
CCCC[C@@H]1NC(=O)[C@@H]2CCCN2C(=O)[C@H]2CCCN2C(=O)[C@H](CO)NC(=O)[C@H](C)NC(=O)[C@H](C(C)(C)C)NC(=O)[C@H](CCN)NC(=O)[C@H](Cc2c[nH]c3ccccc23)NC(=O)[C@H](CCN)NC(=O)[C@@H](CCN)NC(=O)[C@H](CC(=O)N[C@H](CCN)C(=O)N[C@H]2CCNC(=O)[C@H]([C@@H](C)O)NC(=O)[C@H](CCN)NC(=O)[C@H](CCN)NC(=O)[C@H](CC(C)C)NC(=O)[C@@H](Cc3ccccc3)NC(=O)[C@H](CCN)NC2=O)NC(=O)[C@H](CCN)NC(=O)[C@H](Cc2ccc(O)cc2)NC(=O)[C@H](CO)NC1=O [Ex. 66] (I: cyclo([Nle]SY[Dab]D[dDab][Dab]W[Dab][Tle]AS[dP]P) / II: [dDab][Dab][Dab][dF]L[Dab][Dab]T; amide I:5-II:N; lactam II:2-II:C),4,1,2,0.25,2,1,1,1
CCCC[C@@H]1NC(=O)[C@@H]2CCCN2C(=O)[C@H]2CCCN2C(=O)[C@H](CO)NC(=O)[C@H](C)NC(=O)[C@H](C(C)(C)C)NC(=O)[C@H](CCN)NC(=O)[C@H](Cc2c[nH]c3ccccc23)NC(=O)[C@H](CCN)NC(=O)[C@@H](CCN)NC(=O)[C@H](CC(=O)N[C@@H](CCN)C(=O)N[C@H]2CCNC(=O)[C@H]([C@@H](C)O)NC(=O)[C@H](CCN)NC(=O)[C@H](CCN)NC(=O)[C@H](CC(C)C)NC(=O)[C@@H](Cc3ccccc3)NC(=O)[C@H](CCN)NC2=O)NC(=O)[C@H](CCN)NC(=O)[C@H](Cc2ccc(O)cc2)NC(=O)[C@H](CO)NC1=O [Ex. 67] (I: cyclo([Nle]SY[Dab]D[dDab][Dab]W[Dab][Tle]AS[dP]P) / II: [Dab][Dab][Dab][dF]L[Dab][Dab]T; amide I:5-II:N; lactam II:2-II:C),4,1,2,1,2,2,1,<1
CCCC[C@@H]1NC(=O)[C@@H]2CCCN2C(=O)[C@H]2CCCN2C(=O)[C@H](CO)NC(=O)[C@H](C)NC(=O)[C@H](C(C)(C)C)NC(=O)[C@H](CCN)NC(=O)[C@H](Cc2c[nH]c3ccccc23)NC(=O)[C@H](CCN)NC(=O)[C@@H](CCN)NC(=O)[C@H](CC(=O)N(C)[C@@H](CCN)C(=O)N[C@H]2CCNC(=O)[C@H]([C@@H](C)O)NC(=O)[C@H](CCN)NC(=O)[C@H](CCN)NC(=O)[C@H](CC(C)C)NC(=O)[C@@H](Cc3ccccc3)NC(=O)[C@H](CCN)NC2=O)NC(=O)[C@H](CCN)NC(=O)[C@H](Cc2ccc(O)cc2)NC(=O)[C@H](CO)NC1=O [Ex. 69] (I: cyclo([Nle]SY[Dab]D[dDab][Dab]W[Dab][Tle]AS[dP]P) / II: [NMeDab][Dab][Dab][dF]L[Dab][Dab]T; amide I:5-II:N; lactam II:2-II:C),4,1,2,0.5,2,1,1,2
CCCC[C@@H]1NC(=O)[C@@H]2CCCN2C(=O)[C@H]2CCCN2C(=O)[C@H](CO)NC(=O)[C@H](C)NC(=O)[C@H](C(C)(C)C)NC(=O)[C@H](CCN)NC(=O)[C@H](Cc2c[nH]c3ccccc23)NC(=O)[C@H](CCC(=O)N[C@@H](CCN)C(=O)N[C@H]2CCNC(=O)[C@H]([C@@H](C)O)NC(=O)[C@H](CCN)NC(=O)[C@H](CCN)NC(=O)[C@H](CC(C)C)NC(=O)[C@@H](CC(C)C)NC(=O)[C@H](CCN)NC2=O)NC(=O)[C@@H](CCN)NC(=O)[C@H](CCCN)NC(=O)[C@H](CCN)NC(=O)[C@H](Cc2ccc(O)cc2)NC(=O)[C@H](CO)NC1=O [Ex. 70] (I: cyclo([Nle]SY[Dab][Orn][dDab]EW[Dab][Tle]AS[dP]P) / II: [Dab][Dab][Dab][dL]L[Dab][Dab]T; amide I:7-II:N; lactam II:2-II:C),2,1,1,1,8,2,0.5,<1
CCCC[C@@H]1NC(=O)[C@@H]2CCCN2C(=O)[C@H]2CCCN2C(=O)[C@H](CO)NC(=O)[C@H](C)NC(=O)[C@H](C(C)(C)C)NC(=O)[C@H](CCN)NC(=O)[C@H](Cc2c[nH]c3ccccc23)NC(=O)[C@H](CCN)NC(=O)[C@@H](CCN)NC(=O)[C@H](CC(=O)N[C@@H](CCN)C(=O)N[C@H]2CCNC(=O)[C@H]([C@@H](C)O)NC(=O)[C@H](CCN)NC(=O)[C@H](CCN)NC(=O)[C@H](CC(C)C)NC(=O)[C@@H](CC(C)C)NC(=O)[C@H](CCN)NC2=O)NC(=O)[C@H](CCN)NC(=O)[C@H](Cc2ccc(O)cc2)NC(=O)[C@H](CO)NC1=O [Ex. 71] (I: cyclo([Nle]SY[Dab]D[dDab][Dab]W[Dab][Tle]AS[dP]P) / II: [Dab][Dab][Dab][dL]L[Dab][Dab]T; amide I:5-II:N; lactam II:2-II:C),1,0.5,0.25,0.125,2,2,0.5,<1
CCCC[C@@H]1NC(=O)[C@@H]2CCCN2C(=O)[C@H]2CCCN2C(=O)[C@H](CO)NC(=O)[C@H](C)NC(=O)[C@H](C(C)(C)C)NC(=O)[C@H](CCN)NC(=O)[C@H](Cc2c[nH]c3ccccc23)NC(=O)[C@H](CCN)NC(=O)[C@@H](CCN)NC(=O)[C@H](CCC(=O)N[C@H](CCN)C(=O)N[C@H]2CCNC(=O)[C@H]([C@@H](C)O)NC(=O)[C@H](CCN)NC(=O)[C@H](CCN)NC(=O)[C@H](CC(C)C)NC(=O)[C@@H](CC(C)C)NC(=O)[C@H](CCN)NC2=O)NC(=O)[C@H](CCN)NC(=O)[C@H](Cc2ccc(O)cc2)NC(=O)[C@H](CO)NC1=O [Ex. 72] (I: cyclo(W[Dab][Tle]AS[dP]P[Nle]SY[Dab]E[dDab][Dab]) / II: [dDab][Dab][Dab][dL]L[Dab][Dab]T; amide I:12-II:N; lactam II:2-II:C),1,1,0.5,1,1,1,1,<1
